Results: patent US20220054476A1, “SUSTAINED LOCAL DRUG LEVELS FOR INNATE IMMUNE AGONISTS” (Ascendis Pharma Oncology Division A/S, priority 2019, published 2022)
Marks after values point to notes of the source that are not given here.

Columns and labels:
CT26 tumor cells = test: In vivo anti-tumor efficacy, absolute tumor volumes (Example 11); design: species or system BALB/C mice; details: single intratumoral dose (4: 20 μg; 13c: 50 μL)
Description: Mice were subcutaneously implanted with 3×10^5 CT26 tumor cells in the left and right flanks. […] Hydrogels were administered as suspensions in PBST buffer. Following treatment initiation, anti-tumor efficacy was assessed by determination of tumor volumes at various time points from tumor size measurements with a caliper. Tumor volumes were calculated according to the formula: Tumor volume=(L×W^2)×0.5 where L is the length of the tumor and W the width (both in mm). Mice were removed from the study once tumors were greater than 1500 mm^3.

[1] = Resiquimod concentration in plasma samples after intratumoral injection (Example 17); format: in vivo, BALB/C mice; details: female, BALB/C, mouse, other: intratumoral injection, 10 μg
Description: Hydrogels were administered as suspensions in PTP buffer. […] Tumors were excised, weighed and snap frozen.

[2] = system: cytokine and chemokine genes (Il1a, Ccl3, Il1b, Cxcl2, Ccl2, Ccl4, Il10, Ifna4, Cxcl1, Cxcl10, Tnf) in PBMC; test: PBMC gene expression 6 hours post-treatment, qPCR (Example 17); format: in vivo, BALB/C mice; design: key to Cxcl2 gene expression, Mean (2^ΔΔCT) / Ccl2 gene expression, Mean (2^ΔΔCT) / Ccl4 gene expression, Mean (2^ΔΔCT) / Ifna4 gene expression, Mean (2^ΔΔCT) / Cxcl1 gene expression, Mean (2^ΔΔCT) / Cxcl10 gene expression, Mean (2^ΔΔCT) / Il1a gene expression, Mean (2^ΔΔCT) / Tnf gene expression, Mean (2^ΔΔCT): fold change vs untreated, 2^-ΔΔCT, normalized to B2M/UBB/GAPDH
Description: Hydrogels were administered as suspensions in […]. […] Tumors were excised, weighed and snap frozen. […] For PBMC isolations, approximately 600 μl of whole blood was collected via cardiac puncture. The collected whole blood from each individual mouse was diluted with a 1:1 ratio of pre-warmed PBS supplemented with 2% Fetal Bovine Serum (FBS). Then an equal volume of Histopaque-1083 was added to a new sterile 15 mL conical tube, where the diluted whole blood was layered over the Histopaque-1083. The mixture was then centrifuged at 400 g for 30 minutes. The top plasma layer was discarded, and the white translucent interlayer (mononuclear cells) was carefully transferred to a new sterile centrifuge tube. The mononuclear cells were then washed with PBS supplemented with 2% FBS and then were spun down at 250 g for 10 minutes. Afterwards, the cells were lysed with 2 ml of Ammonium-Chloride-Potassium (ACK) lysis buffer (Gibco) for 5 minutes at room temperature to get rid of the red blood cells following manufacturer's instruction. Subsequently, the cells were washed twice with PBS supplemented with 2% FBS and were centrifuged at 250 g for 10 minutes. Then, the supernatant was removed and the PBMC cell pellet was lysed in RLT buffer (Qiagen) and stored at −80° C. before being proceeded to RNA extraction and isolation. Lysates from untreated control samples and 6 hour treated samples were thawed and RNA was isolated using the RNeasy Mini Kit (QIAGEN) following manufacturer's recommendations. Following the first column washing step, DNA was digested directly on the column using the RNase-free DNase Set (TIANGEN) following manufacturer's recommendations. RNA was eluted with RNase-free water. RNA concentrations were measured using a NanoDrop (ThermoFisher) and then adjusted to 200 ng/mL with RNase-free water. RNA quality was assessed using a NanoDrop (ThermoFisher). […] Reverse transcription was performed using random primers, 10 mM dNTP mix, and RNase inhibitor (TIANGEN). Reverse transcription was performed with the following thermal steps: 25° C. for 10 minutes, 37° C. for 120 minutes, 55° C. for 5 minutes. 200 ng of cDNA was used for quantitative PCR using the RT^2 SYBR Green ROX qPCR Master mix (2×) kit (QIAGEN) following manufacturer's recommendations. Probe sets used for qPCR reactions are as follows: [table] Cycle thresholds (CT) were collected using a 384-well platform ABI-7900H real-time qPCR system (Applied Biosystems). B2M, Ubb and GAPDH were used as housekeeping control genes. Data is reported as the average of the 2^-ΔΔCT values for each treatment. 2^-ΔΔCT values were calculated with the following formula: 2^-ΔΔCT=2^−(ΔCT(treated)−ΔCT(untreated)) ΔCT(treated)═CT(treated)−CT (average treated housekeeping) where CT(treated)═CT of the gene of interest of a sample triplicate in the treatment group and CT (treated housekeeping)=Total average CT of the B2M, UBB and GAPDH housekeeping genes of the same sample triplicate in the same treatment group. ΔCT(untreated)═CT (untreated)−CT (untreated housekeeping) where CT (untreated)=average of the CTs of the untreated triplicates at the same timepoint as the CT(treated) comparator and CT (untreated housekeeping)=Total average CT of the B2M, UBB and GAPDH housekeeping genes of the untreated triplicates. For each gene, 3 technical replicates were analyzed per biological replicate. Undetermined technical replicate CT values were recorded as zero ΔCT values. 4-5 biological replicates were assessed in total.

in vivo = test: in vivo; design: species or system WISTAR rats; details: male, Wistar, rat, sc, 25 ug; for half-life: t1/2 (biphasic)
Source text: Hydrogels were suspended (ca. 6% wt/v) PBST buffer at pH 7.4. […] Blood samples were withdrawn and used for plasma generation over the course of 28 d. […] Plasma concentration profiles were generated and analyzed with Phoenix WinNonlin software (Certara, Princeton, N.J., USA).

## CCOCc1nc2c(N)nc3ccccc3c2n1CC(C)(C)O [Compound 4, Resiquimod]
CT26 tumor cells; day 0 post-treatment
  Absolute Tumor Volumes, Mean: 88.82 mm^3
CT26 tumor cells; day 2 post-treatment
  Absolute Tumor Volumes, Mean: 108.44 mm^3
CT26 tumor cells; day 4 post-treatment
  Absolute Tumor Volumes, Mean: 128.42 mm^3
CT26 tumor cells; day 7 post-treatment
  Absolute Tumor Volumes, Mean: 316.07 mm^3
CT26 tumor cells; day 9 post-treatment
  Absolute Tumor Volumes, Mean: 549.72 mm^3
CT26 tumor cells; day 11 post-treatment
  Absolute Tumor Volumes, Mean: 957.90 mm^3
CT26 tumor cells; day 14 post-treatment
  Absolute Tumor Volumes, Mean: 1220.96 mm^3
[1]; 0 hours
  concentration at 0 h: 210 ng/mL
[1]; 6 hours
  concentration at 6 h: 0.36 ng/mL
[1]; 22 hours
  concentration at 22 h: 0.022 ng/mL
[1]; 72 hours
  concentration at 72 h: 0.014 ng/mL
[2]; qPCR
  Ccl2 gene expression, Mean (2^ΔΔCT): 6.75
  Ccl3 gene expression, Mean (2^ΔΔCT): 1.43†
  Ccl4 gene expression, Mean (2^ΔΔCT): 1.31
  Cxcl1 gene expression, Mean (2^ΔΔCT): 7.41
  Cxcl2 gene expression, Mean (2^ΔΔCT): 35.37
  Cxcl10 gene expression, Mean (2^ΔΔCT): 45.38
  Ifna4 gene expression, Mean (2^ΔΔCT): 2.97
  Il1a gene expression, Mean (2^ΔΔCT): 0.41
  Il1b gene expression, Mean (2^ΔΔCT): 3.71†
  Il10 gene expression, Mean (2^ΔΔCT): 2.77†
  Tnf gene expression, Mean (2^ΔΔCT): 4.64
[2]; ratio of mean 4 to mean 13i
  Ccl2 Fold change (4/13i): 2.82
  Ccl3 Fold change (4/13i): 1.64
  Ccl4 Fold change (4/13i): 1.74
  Cxcl1 Fold change (4/13i): 11.54
  Cxcl2 Fold change (4/13i): 6.43
  Cxcl10 Fold change (4/13i): 21.41
  Ifna4 Fold change (4/13i): 20.48
  Il1a Fold change (4/13i): 1.78
  Il1b Fold change (4/13i): 7.92
  Il10 Fold change (4/13i): 2.29
  Tnf Fold change (4/13i): 4.45
In vivo
  AUC: 65.4 ng·h/mL
  Cmax: 23.1 ng/mL
In vivo; first value
  half-life: 1.5 h
In vivo; second value
  half-life: 10 h
